IC50 data for one molecule are collected here from publication PMC3627854 (Osteoporosis International, 2012).

The target of this test is T1, IKKα (Mus musculus, UniProt Q60680).
T1 sequence (Q60680 1-745): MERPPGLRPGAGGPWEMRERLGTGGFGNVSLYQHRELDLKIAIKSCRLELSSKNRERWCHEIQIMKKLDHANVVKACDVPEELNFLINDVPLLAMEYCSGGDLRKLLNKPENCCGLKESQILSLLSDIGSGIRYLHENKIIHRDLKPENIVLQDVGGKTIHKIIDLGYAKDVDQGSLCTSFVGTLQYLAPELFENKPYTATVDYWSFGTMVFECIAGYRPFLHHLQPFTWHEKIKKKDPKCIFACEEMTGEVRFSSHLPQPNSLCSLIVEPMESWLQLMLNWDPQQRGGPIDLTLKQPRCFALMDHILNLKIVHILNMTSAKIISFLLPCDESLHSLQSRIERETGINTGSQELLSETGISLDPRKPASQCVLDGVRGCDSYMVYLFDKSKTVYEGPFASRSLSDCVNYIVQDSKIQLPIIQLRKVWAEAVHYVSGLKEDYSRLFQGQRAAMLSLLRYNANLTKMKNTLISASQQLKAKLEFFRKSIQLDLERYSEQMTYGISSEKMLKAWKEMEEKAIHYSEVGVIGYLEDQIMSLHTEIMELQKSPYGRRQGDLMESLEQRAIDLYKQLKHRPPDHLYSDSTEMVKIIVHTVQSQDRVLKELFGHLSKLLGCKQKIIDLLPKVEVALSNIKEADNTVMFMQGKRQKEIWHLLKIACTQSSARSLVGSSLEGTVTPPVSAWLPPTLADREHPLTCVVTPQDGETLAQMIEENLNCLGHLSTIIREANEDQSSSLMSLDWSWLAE
As to the kind of experiment: IKKα KinEASE FP kinase activity assay, RANKL-stimulated RAW […] cells. The format is cell-based.

A word on the IC50: it is the midpoint of a concentration-inhibition curve. Turning to `O=C1C[C@@H](O[C@@H]2O[C@H](CO)[C@@H](O)[C@H](O)[C@H]2O)CO1` [kinsenoside, 3-(R)-3-β-D-glucopyranosyloxybutanolide], the IC50 was approximately 57.6 µM.
